Entries after “also recorded” stand apart in the source; their conditions may differ. Where two headings read alike, the source gives them in different places.
Tests used:
VT2 [1] = target: T1, VT2 (Escherichia coli, UniProt Q07871); type: binding, E. coli
VT2 [2] = target: T1, VT2; type: cell-based, E. coli
verocytotoxin 1 = verocytotoxin 1 (Bacteriophage H30, UniProt P69178)
Shiga toxin [3] = target: T2, Shiga toxin (Shigella dysenteriae, UniProt Q7BQ98); conditions: cited from earlier work
Shiga toxin [4] = target: T2, Shiga toxin; conditions: cited from earlier work; remark: listed apart in the source
VT1 toxin = VT1 toxin (Bacteriophage H30, UniProt P69178)
[5] = natural verocytotoxin, glycolipid dotted at 0.01-50 nmol
[6] = purified natural VT1, tlc or dot blot, antiverocytotoxin and immunoperoxidase conjugate

T2 sequence (Q7BQ98 whole entry, looked up): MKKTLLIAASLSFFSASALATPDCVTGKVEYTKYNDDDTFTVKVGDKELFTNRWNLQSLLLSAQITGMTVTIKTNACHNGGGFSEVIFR
Chain of verocytotoxin 1 (P69178 whole entry, looked up): as the sequence (Q7BQ98 whole entry, looked up) above
Chain of VT1 toxin (P69178 whole entry, looked up): as the sequence (Q7BQ98 whole entry, looked up) above

CCCCCCCCCCCCCC=CC(O)C(COC1OC(CO)C(OC2OC(CO)C(OC3OC(CO)C(O)C(OC4OC(CO)C(O)C(O)C4NC(C)=O)C3O)C(O)C2O)C(O)C1O)NC(=O)CCCCCCCCCCCCCCC (stereo not drawn) [GbOse4 cer, globotetraosyl ceramide]
VT2 binding to glycolipid (VT2 [1]): no binding; also recorded: does not bind | VT2 binding by liposomal adsorption (VT2 [2]): at least minimal | verocytotoxin binding above background (125I-Protein A binding curves) (verocytotoxin 1; [5]): No binding above background | verocytotoxin binding to glycolipid (verocytotoxin 1; [6]): No binding | Shiga toxin binding to glycolipid (Shiga toxin [3]): residual binding

CCCCCCCCCCCCCC=CC(O)C(CO[C@@H]1O[C@H](CO)[C@@H](O[C@@H]2O[C@H](CO)[C@H](O)[C@H](O)[C@H]2O)[C@H](O)[C@H]1O)NC(=O)CCCCCCCCCCCCCCC (stereo partly drawn) [LacCer, lactosyl ceramide]
VT2 binding to glycolipid (VT2 [1]): no binding | verocytotoxin binding above background (125I-Protein A binding curves) (verocytotoxin 1; [5]): No binding above background | verocytotoxin binding to glycolipid (verocytotoxin 1; [6]): No binding

N[C@H]1[C@H](O[C@H]2[C@H](O)[C@@H](N)[C@H](O[C@H]3[C@H](O)[C@@H](N)C(O)O[C@@H]3CO)O[C@@H]2CO)O[C@H](CO)[C@@H](O)[C@@H]1O (stereo partly drawn) [chiotriose]
effect on Shiga toxin Gb0se3 cer binding (Shiga toxin [3]): little effect | protection against Shiga toxin cytotoxicity (Shiga toxin [4]): protects against cytotoxicity

CCCCCCCCCCCCC/C=C/[C@@H](O)[C@@H](N)CO[C@@H]1O[C@H](CO)[C@@H](O[C@@H]2O[C@H](CO)[C@H](O[C@H]3O[C@H](CO)[C@H](O)[C@H](O)[C@H]3O)[C@H](O)[C@H]2O)[C@H](O)[C@H]1O [deacylated globotriosyl ceramide]
amount of purified toxin the assay can detect (VT1 toxin): less than 5 pg | effect of deacylation on verocytotoxin binding (VT1 toxin): does not inhibit verocytotoxin binding

CCCCCCCCCCCCCC=CC(O)C(CO[C@@H]1O[C@H](CO)[C@H](O[C@H]2O[C@H](CO)[C@H](O)[C@H](O)[C@H]2O)[C@H](O)[C@H]1O)NC(=O)CCCCCCCCCCCCCCC (stereo partly drawn) [galabiosyl ceramide]
VT2 binding after digestion with αgalactosidase (VT2 [1]): binding is removed | VT2 binding to glycolipid (VT2 [1]): binds | VT1 binding to Daudi cell glycolipids (verocytotoxin 1; glycolipids contained in Daudi cells): VT1-binding

digalactosyl diglyceride [DGDG]
VT2 binding to glycolipid (VT2 [1]): loss of VT2 binding; also recorded: do not bind | verocytotoxin binding above background (125I-Protein A binding curves) (verocytotoxin 1): No binding above background | verocytotoxin binding to glycolipid (verocytotoxin 1): unreactive with the toxin

Source: patent publication US5164298A (priority 1988, dated 1992)
